Where two headings read alike, the source gives them in different places.
Key:
[1] = log P determined by HPLC analysis; assay type: physicochemical
Method: log P*=[…] logarithm to base 10 of the […] partition coefficient, determined by HPLC analysis on 125×4.0 mm Kromasil 120 C 18 (5 μm), using water/acetonitrile as mobile phase; flow rate: 1.5 ml/min.

[2] = tested on: caterpillars of the cotton bollworm (Heliothis armigera); experiment: Heliothis armigera test; assay type: in vivo; details: concentration of active compound 0.004%, after 6 days, dipped soybean shoots
Method: (§1) Solvent: 7 parts by weight of dimethylformamide
(§2) Emulsifier: 1 part by weight of alkylaryl polyglycol ether
(§3) To produce a suitable preparation of active compound, 1 part by weight of active compound is mixed with the stated amounts of solvent and emulsifier, and the concentrate is diluted with emusifier-containing water to the desired concentration.
Soybean shoots (Glycine max) are treated by being dipped into the preparation of active compound of the desired concentration and are populated with caterpillars of the cotton bollworm (Heliothis armigera) while the leaves are still moist.
(§4) After the desired period of time, the kill in % is determined. 100% means that all caterpillars have been killed; 0% means that none of the caterpillars have been killed.

[3] = tested on: caterpillars of the army-worm (Spodoptera frugiperda); experiment: Spodoptera frugiperda test; assay type: in vivo; details: concentration of active compound at most 0.1%, after 6 days, dipped cabbage leaves
Method: Spodoptera frugiperda Test
as §1, §2, §3
Cabbage leaves (Brassica oleracea) are treated by being dipped into the preparation of active compound of the desired concentration and are populated with caterpillars of the army-worm (Spodoptera frugiperda) while the leaves are still moist.
as §4

[4] = tested on: all stages of the greenhouse red spider mite (Tetranychus urticae); experiment: Tetranychus test (OP-resistant/dip treatment); assay type: in vivo; details: concentration of active compound at most 0.1%, after 6 days, dipped bean plants
Method: Tetranychus Test (OP-resistant/dip Treatment)
as §1, §2
To produce a suitable preparation of active compound, 1 part by weight of active compound is mixed with the stated amounts of solvent and emulsifier, and the concentrate is diluted with emulsifier-containing water to the desired concentration.
Bean plants (Phaseolus vulgaris) which are heavily infested by all stages of the greenhouse red spider mite (Tetranychus urticae) are dipped into a preparation of the active compound of the desired concentration.
After the desired period of time, the kill in % is determined. 100% means that all spider mites have been killed; 0% means that none of the spider mites have been killed.

[5] = tested on: caterpillars of the diamond-back moth (Plutella xylostella); experiment: Plutella test; assay type: in vivo; details: concentration of active compound 0.004%, after 6 days, dipped cabbage leaves
Method: as §1, §2, §3
Cabbage leaves (Brassica oleracea) are treated by being dipped into the preparation of active compound of the desired concentration and are populated with caterpillars of the diamond-back moth (Plutella xylostella) while the leaves are still moist.
as §4

[6] = tested on: larvae of the mustard beetle (Phaedon cochleariae); experiment: Phaedon larvae test; assay type: in vivo; details: concentration of active compound 0.004%, after 6 days, dipped cabbage leaves
Method: Phaedon Larvae Test Solvent: 7 parts by weight of dimethylformamide Emulsifier: 1 part by weight of alkylaryl polyglycol ether To produce a suitable preparation of active compound, 1 part by weight of active compound is mixed with the stated amounts of solvent and emulsifier, and the concentrate is diluted with emusifier-containing water to the desired concentration. Cabbage leaves (Brassica oleracea) are treated by being dipped into the preparation of active compound of the desired concentration and are populated with larvae of the mustard beetle (Phaedon cochleariae) while the leaves are still moist.

[7] = pH 2.3, HPLC, read-out: log P (pH 2.3)

O=C(c1ccccc1Cl)C1CC(c2ccccc2)N(C(=O)c2ccccc2Cl)C1=O (stereo not drawn) [Example G(II)-20, 1,3-(2-chlorobenzoyl)-5-phenyl-pyrrolidin-2-one]
chromatographic logP ([1]; pH 2.5, read-out: log P (pH 2.5)): 3.91

FC(F)(F)Oc1ccc(-c2ccc(C3CCC(c4ccccc4Cl)=N3)cc2)cc1 (stereo not drawn) [Example I-7]
kill in % [2]: 100% | kill in % [3]: 100% | kill in % [4]: 100% | kill in % [5]: 100% | kill in % [6]: 100%

Clc1ccccc1C1=NC(c2ccccc2)CC1 (stereo not drawn) [Example I-20]
kill in % [4]: 100% | log P* (pH 7.5) ([1]; pH 7.5, HPLC, Kromasil 120 C 18, water/acetonitrile): 3.6 l

FC(F)C(F)(F)Oc1ccc(-c2ccc(C3CCC(c4ccccc4Cl)=N3)cc2)cc1 (stereo not drawn) [Example I-43]
chromatographic logP [1, 7]: 4.01

CC(C)(C)OC(=O)N1C(=O)CCC1c1ccc(-c2ccc(OC(F)(F)C(F)F)cc2)cc1 (stereo not drawn) [Example IX-43]
chromatographic logP [1, 7]: 3.96

CC(C)(C)OC(=O)NC(CCC(=O)c1ccccc1Cl)c1ccc(-c2ccc(OC(F)(F)C(F)F)cc2)cc1 (stereo not drawn) [Example VIII-43]
chromatographic logP [1, 7]: 4.94

O=C1CCC(c2ccc(-c3ccc(OC(F)(F)C(F)F)cc3)cc2)N1 (stereo not drawn) [Example XI-43]
chromatographic logP [1, 7]: 2.79
